Results taken from patent US11389385B2, “Resorcinol derivatives for their cosmetic use” (L'OREAL, priority 2017, dated 2022).
Read-outs that look alike come from different tables or passages of the source.

Key:
[1] = system: normal human melanocytes; test: Depigmenting activity: reduction of melanin production in normal human melanocytes in vitro; format: cell-based; details: Melanocyte, 72 h, 72 hours incubation, maximum concentration tested 200 μM, read-out: IC50 (concentration at which a 50% decrease in melanin synthesis is achieved)
Procedure: The measurement of the depigmenting activity (reduction of melanin production) of compounds of formula (I) was performed by assaying normal human melanocytes in vitro as follows.
First, normal human melanocytes are cultured and distributed in a multiwell plate. After 24 hours, the culture medium was replaced with a medium containing the compounds of formula (I) to be evaluated. The cells were incubated 72 hours before measurement of the final optical density, which measures the amount of melanin produced by the melanocytes. A dose effect was performed using a wide concentration range of the compounds evaluated. Thus, by making the concentrations and the melanin measurements correspond, it was possible to determine an IC50 in μM: concentration at which a 50% decrease in melanin synthesis is achieved.
Various test campaigns were conducted and the test results are collated in the tables below.

[2] = system: coculture of keratinocytes and melanocytes; test: Coculture experiment: melanogenesis-modulating effect and cytotoxicity; format: cell-based; details: for IC50: melanin optical density, read-out: IC50 (concentration for which 50% of the melanin synthesis is inhibited)
Procedure: The melanogenesis-modulating effect of compound D was measured according to the method described in patent FR-A-2734825, and also in the article by R. Schmidt, P. Krien and M. Régnier, Anal. Biochem., 235(2), 113-18, 1996. This test is performed on a coculture of keratinocytes and melanocytes.
For the test compounds, the following were determined: • the cytotoxicity, • the inhibitory activity on melanin synthesis, by estimating the melanin optical density.
The IC50 values (concentration for which 50% of the melanin synthesis is inhibited) were determined.
The test was also performed with the compound 5-[(E)-2-(4-hydroxyphenyl)ethenyl]benzene-1,3-diol described in the prior art patent application JP01038009,

[3] = values marked *: different campaigns each time
[4] = coculture of keratinocytes and melanocytes

Compound: CC(Cc1nc2ccccc2[nH]1)c1ccc(O)cc1O (stereo not shown) [Compound D, 4-[1-(1H-benzimidazol-2-yl)propan-2-yl]benzene-1,3-diol]
- IC50 ([1]; melanin by optical density): 3.7 µM
- IC50 [1, 3]: 6.7 µM
- cytotoxicity [2]: non-cytotoxic
- IC50 [2, 4]: 1380 nM

Compound: CC(Cc1nccs1)c1ccc(O)cc1O (stereo not shown) [Compound B, 4-[1-(1,3-thiazol-2-yl)propan-2-yl]benzene-1,3-diol]
- IC50 ([1]; melanin by optical density): 5.9 µM
- IC50 [1, 3]: 1.07 µM

Compound: CC(Cc1ncc[nH]1)c1ccc(O)cc1O (stereo not shown) [Compound A, 4-[1-(1H-imidazol-2-yl)propan-2-yl]benzene-1,3-diol]
- IC50 [1, 3]: 3.7 µM

Compound: Oc1ccc(/C=C/c2cc(O)cc(O)c2)cc1 [Compound of the prior art, 5-[(E)-2-(4-hydroxyphenyl)ethenyl]benzene-1,3-diol, reference compound]
- IC50 ([1]; melanin by optical density): 8.18 µM
- cytotoxicity [2, 4]: Non-cytotoxic
- IC50 [2, 4]: 2770 nM
